Results from PMC11606603, “The membrane domains of mammalian adenylyl cyclases are lipid receptors” (eLife, 2024).
Values joined by “and” are separate entries in the source; they are usually repeats but may differ in a detail not shown here. Equal values may be shown once.

Molecular target: T1, mAC4 (Homo sapiens, UniProt Q8NFM4)
T1 construct: Human mAC genes were from GenScript and fitted with a C-terminal FLAG-tag; FLAG (C); made in house; host or cells: HEK293, permanently transfected; membrane preparation
T1 sequence (Q8NFM4 1-1077): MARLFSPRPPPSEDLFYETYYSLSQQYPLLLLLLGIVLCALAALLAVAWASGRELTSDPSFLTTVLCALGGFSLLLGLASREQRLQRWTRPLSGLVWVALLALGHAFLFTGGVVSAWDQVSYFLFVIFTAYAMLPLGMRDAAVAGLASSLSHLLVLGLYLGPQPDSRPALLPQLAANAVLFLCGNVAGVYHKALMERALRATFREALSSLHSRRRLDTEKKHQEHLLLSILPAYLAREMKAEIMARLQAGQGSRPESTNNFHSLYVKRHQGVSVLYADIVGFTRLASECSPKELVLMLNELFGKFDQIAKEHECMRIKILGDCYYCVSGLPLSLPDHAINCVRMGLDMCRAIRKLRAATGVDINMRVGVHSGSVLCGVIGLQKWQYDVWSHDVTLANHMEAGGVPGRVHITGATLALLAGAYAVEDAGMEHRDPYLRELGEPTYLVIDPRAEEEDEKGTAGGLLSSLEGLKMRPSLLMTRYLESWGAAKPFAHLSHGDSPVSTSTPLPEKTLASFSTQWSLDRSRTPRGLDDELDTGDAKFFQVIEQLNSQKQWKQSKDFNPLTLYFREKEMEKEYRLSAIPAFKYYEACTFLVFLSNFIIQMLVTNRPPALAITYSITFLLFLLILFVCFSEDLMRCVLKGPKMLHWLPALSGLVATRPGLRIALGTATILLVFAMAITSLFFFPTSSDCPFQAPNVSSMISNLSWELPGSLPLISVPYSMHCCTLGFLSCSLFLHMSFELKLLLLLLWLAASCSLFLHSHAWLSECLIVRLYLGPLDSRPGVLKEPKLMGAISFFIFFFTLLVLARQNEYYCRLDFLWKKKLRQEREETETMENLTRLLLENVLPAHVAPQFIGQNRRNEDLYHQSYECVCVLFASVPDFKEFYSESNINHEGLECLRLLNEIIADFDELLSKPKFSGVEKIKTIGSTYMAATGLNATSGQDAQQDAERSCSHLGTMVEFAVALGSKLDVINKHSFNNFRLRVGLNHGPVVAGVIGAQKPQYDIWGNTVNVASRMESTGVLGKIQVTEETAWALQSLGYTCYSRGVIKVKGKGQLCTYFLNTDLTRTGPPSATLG
Test: AC assay, Gsα-stimulated mAC4 in membranes from transfected HEK293 cells
Assay type: biochemical
Conditions: for Effect of lipid on 300 nM Gsα-stimulated mAC4: 20 µM; for activity [%] (100% = 300nM Gsα stimulation): mAC4
Procedure, shortened: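 EC50 and IC50 values come from cAMP production, read with a Cisbio cAMP kit and converted via a standard curve. Assay mix held 1 mM ATP, 2 mM MgCl2, 3 mM creatine phosphate and 60 μg/ml creatine kinase in 50 mM MOPS pH 7.5, using transfected HEK293 membranes.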

## CCCCCCCC/C=C\CCCCCCCC(=O)O [Oleic acid, Oleic ((9Z)-octadecenoic) acid]
300 nM Gsα, single experiments
  mAC4 activity [%] (100% = 300nM Gsα stimulation); 20µM fatty acid concentration: 100% and 72% and 120% and 92%
In words
  Effect of lipid on 300 nM Gsα-stimulated mAC4: unaffected
Figure 5 A, 20 µM oleic acid, 300 nM Gsα
  mAC activity [%] (100% = 300nM Gsα stimulation); 20µM Oleic acid concentration, mAC4: 72% and 92% and 64% and 100%

## CCCCC/C=C\C/C=C\C/C=C\C/C=C\CCCC(=O)NCCO [Anandamide, arachidonoylethanolamide]
concentration–response, higher concentrations, in words
  Effect of anandamide on Gsα-stimulated mAC4: distinctly not
Anandamide 0.1 µM
  activity [%] (100% = 300nM Gsα stimulation): 100%
Anandamide 3 µM
  activity [%] (100% = 300nM Gsα stimulation): 86% and 113% and 96% and 121% and 82%
Anandamide 30 µM
  activity [%] (100% = 300nM Gsα stimulation): 107%

## CCCCC/C=C\C/C=C\C/C=C\C/C=C\CCCC(=O)O [Arachidonic acid, Arachidonic ((5Z,8Z,11Z,14Z)-eicosatetraenoic) acid]
  IC50: 36 µM
In words
  Effect of lipid on 300 nM Gsα-stimulated mAC4: significantly attenuated
1 µM, 300 nM Gsα, single experiments
  activity [%] (100% = 300nM Gsα stimulation): 68% and 108% and 85% and 103% and 89% and 87% and 67% and 75%
3 µM, 300 nM Gsα, single experiments
  activity [%] (100% = 300nM Gsα stimulation): 72% and 95% and 69% and 73% and 97% and 106% and 108%
6 µM, 300 nM Gsα, single experiments
  activity [%] (100% = 300nM Gsα stimulation): 70% and 85% and 107% and 83% and 91% and 126%
30 µM, 300 nM Gsα, single experiments
  activity [%] (100% = 300nM Gsα stimulation): 84% and 74% and 88%
100 µM, 300 nM Gsα, single experiments
  activity [%] (100% = 300nM Gsα stimulation): 22% and 14% and 13%

## CCCCCCCCCCCCCCCCCC(=O)O [Stearic acid, Stearic (octadecanoic) acid]
300 nM Gsα, single experiments
  mAC4 activity [%] (100% = 300nM Gsα stimulation); 20µM fatty acid concentration: 79% and 60% and 83%
